According to US20140303092A1 (CHIMERIX, INC., priority 2011, published 2014):

Tests used:
AdV = assay: In vitro antiviral activity in cell culture, AdV; type: cell-based; details: unidentified adenovirus
[1] = Study HDP-CDV-201: GVHD reported as AE, weekly stage and grade, logistic regression versus dose; parameters: species or system human (HSCT recipients); details: human, in vivo
Experimental: Because of the increased frequency of reports of acute GVHD in the BIW Cohorts of Study HDP-CDV-201, an in-depth analysis of reported GVHD was conducted. This analysis includes data from the following sources: Adverse events as reported in the eCRF, including GVHD and GI events; Weekly GVHD assessments (by stage, organ, and grade) as reported by the investigators on the GVHD module of the eCRF. […]
For all subjects, the sites were instructed to record the presence or absence of GVHD, and stage and grade of GVHD, if present, at each visit on a separate eCRF page. […] Stage and grade of GVHD were evaluated per the NIH consensus guidelines (Przepiorka D, et al. Consensus conference on acute GVHD grading. Bone Marrow Transplant. 1995; 15(6): 825-828), which focus on the intensity of symptoms or laboratory abnormalities associated with GVHD (for example, the staging of GVHD of the intestine is based on the volume of diarrhea). […]

clinical = details: human, in vivo
Experimental: The pharmacokinetics of HDP-CDV (oral solution) were investigated in a dose-escalation study in healthy volunteers (Study HDP-CDV-102) in which single doses of up to 2 mg/kg and multiple doses (3 doses, each separated by 6 days) of up to 1 mg/kg were administered.

[2] = tested on: human liver microsomes and recombinant human CYP enzymes; assay: Study HDP-CDV-NCA-049: in vitro CYP reaction phenotyping, liver microsomes; type: in vitro ADME; details: liver microsomes from multiple species, previous studies
From the text: This study is expected to definitively quantify the major human metabolites arising from specific CYP enzymes and inform the need for a clinical DDI study investigating the effect of inhibition of these CYP enzymes on the PK of HDP-CDV.

CMV = assay: Study HDP-CDV-350: virologic response of refractory CMV infection in HCT recipients; type: in vivo, human (allogeneic HCT recipients); details: for Proportion of subjects with ≧1 log10 last on-treatment reduction or last on-treatment reduction to ≦ LLOQ / Proportion of subjects with ≧1 log10 postbaseline reduction in CMV DNAemia or postbaseline reduction to ≦ LLOQ: LLOQ 100 copies/mL
Experimental: The virologic responses of 16 allogeneic HCT recipients enrolled and treated with HDP-CDV due to refractory CMV infection or disease and/or intolerance to available anti-CMV medications were evaluated.
All subjects completed a screening assessment (including obtaining written informed consent and, where applicable, assent) prior to initiating treatment with HDP-CDV.
HDP-CDV was given orally twice weekly (BIW); 100 mg BIW for adults or 2 mg/kg BIW for pediatrics. […] Eligible subjects received either a weight-based or fixed dose of HDP-CDV. Pediatric subjects (≦12 years old) received a 4 mg/kg total weekly dose (not-to-exceed 200 mg), as either 2 mg/kg twice-weekly (BIW) or 4 mg/kg once-weekly (QW). Adults and adolescent (13-17 years old) subjects received a 200 mg (not to exceed 4 mg/kg) total weekly dose, as either 100 mg BIW or 200 mg QW. BIW doses were administered at alternating 3- and 4-day intervals and QW doses on the same day each week.
Subjects were treated for an initial period of up to 3 months until either resolution or stabilization of their clinical disease or for 4 weeks following resolution of viral DNAemia, depending on the disease under treatment, whichever was longer. Treatment is extended for up to an additional 3 months, for a total duration of 6 months treatment, depending on the subject's clinical response.
Subjects underwent extensive safety monitoring, including routine safety laboratory assessments, physical examination, and vital sign measurements at regular intervals. In addition, subjects were monitored for viral DNA burden in plasma (DNAemia) and other affected compartments (e.g., urine, stool, CSF, etc.). Assessments were performed weekly for the first month, every 1 or 2 weeks for the next 2 months, and monthly thereafter for as long as treatment was continued. Subjects were monitored for adverse events (AEs) and for selected concomitant medication throughout the entire study, including the 1 month posttreatment follow-up period.

## CCCCCCCCCCCCCCCCOCCCOP(=O)(O)COC(CO)Cn1ccc(N)nc1=O (centres unmarked) [HDP-CDV]
AdV
  EC50: 20 nM
[1]
  overall frequency of GVHD: 44 to 59%
clinical
  Cmax and AUC versus dose: increased approximately in proportion to dose
  accumulation on Day 12: negligible accumulation
  quantifiable in urine: not quantifiable in the urine
clinical; 1 mg/kg
  half-life: 27 h
clinical; po
  time of Cmax after administration: 2 to 3 h
[2]
  in vitro turnover: low in vitro turnover
CMV; 16 HCT recipients, 100 mg BIW adults or 2 mg/kg BIW pediatrics
  Maximal reduction in CMV VL from BL, mean (range): 1.13 (−0.30-2.60) log10
CMV; 16 subjects, qPCR plasma
  Mean last on-treatment change from baseline CMV DNAemia: −0.63 log10 copies/mL
  Mean maximal postbaseline change in CMV DNAemia: −1.13 log10 copies/mL
CMV; +1 Month Posttreatment, N 8
  Change from Baseline CMV DNAemia, Mean: −1.00 log10 copies/mL
CMV; +1 Week Posttreatment, N 9
  Change from Baseline CMV DNAemia, Mean: −0.63 log10 copies/mL
CMV
  Proportion of subjects with ≧1 log10 last on-treatment reduction or last on-treatment reduction to ≦ LLOQ: (62.5%)
  Proportion of subjects with ≧1 log10 postbaseline reduction in CMV DNAemia or postbaseline reduction to ≦ LLOQ: (81.3%)
CMV; Month 3, N 7
  Change from Baseline CMV DNAemia, Mean: +0.16 log10 copies/mL
CMV; Month 4, N 4
  Change from Baseline CMV DNAemia, Mean: −0.89 log10 copies/mL
CMV; Month 5, N 3
  Change from Baseline CMV DNAemia, Mean: −0.84 log10 copies/mL
CMV; Month 6, N 3
  Change from Baseline CMV DNAemia, Mean: −0.80 log10 copies/mL
CMV; Thirteen of 16 subjects
  subjects with >1 log10 reduction or ≦LOQ (2 log10) during tx: 81%
CMV; Week 2, N 16
  Change from Baseline CMV DNAemia, Mean: −0.22 log10 copies/mL
CMV; Week 3, N 15
  Change from Baseline CMV DNAemia, Mean: −0.30 log10 copies/mL
CMV; Week 4, N 15
  Change from Baseline CMV DNAemia, Mean: −0.52 log10 copies/mL
CMV; Week 5, N 14
  Change from Baseline CMV DNAemia, Mean: −0.63 log10 copies/mL
CMV; Week 6, N 6
  Change from Baseline CMV DNAemia, Mean: −0.66 log10 copies/mL
CMV; Week 7, N 10
  Change from Baseline CMV DNAemia, Mean: −0.16 log10 copies/mL
CMV; Week 8, N 3
  Change from Baseline CMV DNAemia, Mean: +0.22 log10 copies/mL
CMV; Week 9, N 8
  Change from Baseline CMV DNAemia, Mean: −0.02 log10 copies/mL
CMV; Week 10, N 2
  Change from Baseline CMV DNAemia, Mean: +0.11 log10 copies/mL
CMV; Week 11, N 9
  Change from Baseline CMV DNAemia, Mean: +0.06 log10 copies/mL
CMV; subjects/N
  Proportion of subjects with ≧1 log10 last on-treatment reduction or last on-treatment reduction to ≦ LLOQ: 10/16
  Proportion of subjects with ≧1 log10 postbaseline reduction in CMV DNAemia or postbaseline reduction to ≦ LLOQ: 13/16
